# According to patent US20150291598A1 (NOVARTIS AG, priority 2012, published 2015):
# Test system: P. falciparum (NF54 or 3D7 strain)
# Assay: Assay for P. falciparum proliferation in infected human blood cells (SYBR Green)
# Type: cell-based, Plasmodium falciparum
# Conditions: NF54 or 3D7 infected human erythrocytes, 72 hours; read-out: EC50 (nM), inhibitory efficacy in delaying P. falciparum proliferation in infected human blood cells
# Description: Assay for P. falciparum Proliferation in Infected Human Blood Cells
# Compounds of the invention can be assayed to measure their capacity to inhibit proliferation of P. falciparum parasitemia in infected red blood cells. This parasite proliferation assay measures the increase in parasite DNA content using a DNA intercalating dye, SYBR Green® (INVITROGEN®) which has a high affinity for double stranded DNA.
# NF54 or 3D7 P. falciparum strain is grown in complete culturing media until parasitemia reaches 3% to 8% with O+ human erythrocytes. […] 20 μl of screening media is dispensed into 384 well assay plates. 50 nl of compounds of the invention (in DMSO), including antimalarial controls (mefloquine, pyrimethamine and artemisinin), are then transferred into the assay plates, as well as DMSO alone to serve as a negative control for inhibition. Then 30 μl of a suspension of a NF54 or 3D7 P. falciparum infected erythrocytes in screening media is dispensed into the assay plates such that the final hematocrit is 2.5% with a final parasitemia of 0.3%. The plates are placed in a 37° C. incubator for 72 hours in a low oxygen environment containing 93% N2, 4% CO2, and 3% O2 gas mixture. 10 μl of lysis buffer (saponin, triton-X, EDTA) containing a 10× solution of SYBR Green I® in RPMI media is dispensed into the plates. The plates are lidded and kept at room temperature overnight for the lysis of the infected red blood cells. The fluorescence intensity is measured (excitation […], emission 530 nm) using the Envision™ system (Perkin Elmer).
row,Molecule,EC50 [nM]
1,"4-{6-[N-methyl(4-cyanobenzene)amido]imidazo[1,2-a]pyrazin-3-yl}benzamide [Compound 495]",405

# Same assay, conditions: Plasmodium falciparum, 3D7|NF54, Erythrocyte, in Homo sapiens, 72 h, NF54 or 3D7 infected human erythrocytes, 72 hours; read-out: EC50 (nM), inhibitory efficacy in delaying P. falciparum proliferation in infected human blood cells
row,Molecule,EC50 [nM]
1,CN(Cc1cn2c(-c3ccc(-n4cccn4)cc3)cnc2cn1)c1ccc(F)cc1 [Compound 10],189

# Same assay, conditions: Plasmodium falciparum, Erythrocyte, 72 h, NF54 or 3D7 infected human erythrocytes, 72 hours; read-out: EC50 (nM), inhibitory efficacy in delaying P. falciparum proliferation in infected human blood cells
row,Molecule,EC50 [nM]
1,"CC(N)C(=O)Nc1ccc(-c2cnc3cnc(C(=O)N(C)c4ccc(C#N)cc4)cn23)cc1 (stereo in doubt) [Compound 271, 3-{4-[(2S)-2-aminopropanamido]phenyl}-N-(4-cyanophenyl)-N-methylimidazo[1,2-a]pyrazine-6-carboxamide]",207
2,"CN(C(=O)c1cn2c(-c3ccc(NC(=O)C(N)C4CC4)cc3)cnc2cn1)c1ccc(C#N)cc1 (stereo in doubt) [Compound 292, 3-{4-[(2S)-2-amino-2-cyclopropylacetamido]phenyl}-N-(4-cyanophenyl)-N-methylimidazo[1,2-a]pyrazine-6-carboxamide]",304
3,"CN(C)CCCOc1ccc(-c2cnc3cnc(C(=O)N(C)c4ccc(C#N)cc4)cn23)cn1 [Compound 1, N-(4-cyanophenyl)-3-(6-(3-(dimethylamino)propoxy)pyridin-3-yl)-N-methylimidazo[1,2-a]pyrazine-6-carboxamide]",477
4,"CN(Cc1cn2c(-c3ccc(-c4ccn[nH]4)cc3)cnc2cn1)c1ccc(C#N)cc1 [Compound 2, 4-(((3-(4-(1H-pyrazol-5-yl)phenyl)imidazo[1,2-a]pyrazin-6-yl)methyl)(methyl)amino)benzonitrile]",66
5,"CN(Cc1cn2c(-c3ccc(-c4ccn[nH]4)cc3)cnc2cn1)c1ccc(F)cc1 [Compound 3, N-((3-(4-(1H-pyrazol-5-yl)phenyl)imidazo[1,2-a]pyrazin-6-yl)methyl)-4-fluoro-N-methylaniline]",58
6,"CN(Cc1cn2c(-c3ccc(Cl)cc3)cnc2cn1)c1ccc(C#N)cc1 [Compound 4, 4-(((3-(4-chlorophenyl)imidazo[1,2-a]pyrazin-6-yl)methyl)(methyl)amino)benzonitrile]",185
7,"CN(Cc1cn2c(-c3ccc(-c4ccn[nH]4)cc3)cnc2cn1)c1ccc(Cl)cc1 [Compound 5, N-((3-(4-(1H-pyrazol-5-yl)phenyl)imidazo[1,2-a]pyrazin-6-yl)methyl)-4-chloro-N-methylaniline]",238
8,"CN(C(=O)c1cn2c(-c3ccc(C(F)(F)F)cc3)cnc2cn1)c1ncc(Cl)cc1F [Compound 6, N-(5-chloro-3-fluoropyridin-2-yl)-N-methyl-3-(4-(trifluoromethyl)phenyl)imidazo[1,2-a]pyrazine-6-carboxamide]",619
9,"CS(=O)(=O)c1ccc2c(c1)CCN2C(=O)c1cn2c(-c3ccc(C(F)(F)F)cc3)cnc2cn1 [Compound 7, 5-methanesulfonyl-1-({3-[4-(trifluoromethyl)phenyl]imidazo[1,2-a]pyrazin-6-yl}carbonyl)-2,3-dihydro-1H-indole]",> 10000
10,"CN(Cc1cn2c(-c3ccc4c(cnn4C)c3)cnc2cn1)c1ccc(F)cc1 [Compound 8, 4-fluoro-N-methyl-N-((3-(1-methyl-1H-indazol-5-yl)imidazo[1,2-a]pyrazin-6-yl)methyl)aniline]",21
11,"CN(Cc1cn2c(-c3ccc(-n4cccn4)cc3)cnc2cn1)c1ccc(Cl)cc1 [Compound 9, N-((3-(4-(1H-pyrazol-1-yl)phenyl)imidazo[1,2-a]pyrazin-6-yl)methyl)-4-chloro-N-methylaniline]",218
12,"CN(C(=O)c1cn2c(-c3ccc(C(F)(F)F)cc3)cnc2cn1)c1ccc2c(c1)nnn2C [Compound 12, N-methyl-N-(1-methyl-1H-benzo[d][1,2,3]triazol-5-yl)-3-(4-(trifluoromethyl)phenyl)imidazo[1,2-a]pyrazine-6-carboxamide]",4850
13,"CN(C(=O)c1cn2c(-c3ccc(-c4ccn[nH]4)cc3)cnc2cn1)c1ccc(Cl)cc1 [Compound 13, N-(4-chlorophenyl)-N-methyl-3-[4-(1H-pyrazol-5-yl)phenyl]imidazo[1,2-a]pyrazine-6-carboxamide]",41
14,"CN(C(=O)c1cn2c(-c3ccc(C(F)(F)F)cc3)cnc2cn1)c1nc2ccccc2s1 [Compound 14, N-(1,3-benzothiazol-2-yl)-N-methyl-3-[4-(trifluoromethyl)phenyl]imidazo[1,2-a]pyrazine-6-carboxamide]",9580
15,"CN(C(=O)c1cn2c(-c3ccc(-c4nnc(N)o4)cc3)cnc2cn1)c1ccc(Cl)cc1 [Compound 15, -[4-(5-amino-1,3,4-oxadiazol-2-yl)phenyl]-N-(4-chlorophenyl)-N-methylimidazo[1,2-a]pyrazine-6-carboxamide]",29
16,"COc1cccnc1N(C)C(=O)c1cn2c(-c3ccc(C(F)(F)F)cc3)cnc2cn1 [Compound 16, N-(3-methoxypyridin-2-yl)-N-methyl-3-[4-(trifluoromethyl)phenyl]imidazo[1,2-a]pyrazine-6-carboxamide]",454
17,"CN(C(=O)c1cn2c(-c3ccc(Cl)cc3)cnc2cn1)c1ccc(S(C)(=O)=O)cc1 [Compound 17, 3-(4-chlorophenyl)-N-(4-methanesulfonylphenyl)-N-methylimidazo[1,2-a]pyrazine-6-carboxamide]",602
18,"CN(Cc1cn2c(-c3ccc(Cl)cc3)cnc2cn1)c1ccc(F)cc1 [Compound 18, N-{[3-(4-chlorophenyl)imidazo[1,2-a]pyrazin-6-yl]methyl}-4-fluoro-N-methylaniline]",78
19,"Cc1ccc(-c2cnc3cnc(C(=O)N(C)c4ccc(C#N)cc4)cn23)nc1 [Compound 19, N-(4-cyanophenyl)-N-methyl-3-(5-methylpyridin-2-yl)imidazo[1,2-a]pyrazine-6-carboxamide]",280
20,"CN(C(=O)c1cn2c(-c3ccc(Cl)cc3Cl)cnc2cn1)c1ccc(C#N)cc1 [Compound 20, N-(4-cyanophenyl)-3-(2,4-dichlorophenyl)-N-methylimidazo[1,2-a]pyrazine-6-carboxamide]",> 10000
21,"CN(Cc1cn2c(-c3ccc(OC(F)F)cc3)cnc2cn1)c1ccc(F)cc1 [Compound 21, N-({3-[4-(difluoromethoxy)phenyl]imidazo[1,2-a]pyrazin-6-yl}methyl)-4-fluoro-N-methylaniline]",46
22,"CN(C(=O)c1cn2c(-c3ccc(C(N)=O)cc3)cnc2cn1)c1ccc(F)c(F)c1 [Compound 22, 3-(4-carbamoylphenyl)-N-(3,4-difluorophenyl)-N-methylimidazo[1,2-a]pyrazine-6-carboxamide]",74
23,"CN(C(=O)c1cn2c(-c3ccc(C(F)(F)F)cc3)cnc2cn1)c1ccc(F)cc1F [Compound 23, N-(2,4-difluorophenyl)-N-methyl-3-[4-(trifluoromethyl)phenyl]imidazo[1,2-a]pyrazine-6-carboxamide]",99
24,"CN(C(=O)c1ccc(N2CCOCC2)cc1)c1cn2c(-c3ccc(C(F)(F)F)cc3)cnc2cn1 [Compound 24, N-methyl-4-(morpholin-4-yl)-N-{3-[4-(trifluoromethyl)phenyl]imidazo[1,2-a]pyrazin-6-yl}benzamide]",1120
25,"CN(Cc1cn2c(-c3ccc(-c4nnc(N)s4)cc3)cnc2cn1)c1ccc(C#N)cc1 [Compound 25, 4-[({3-[4-(5-amino-1,3,4-thiadiazol-2-yl)phenyl]imidazo[1,2-a]pyrazin-6-yl}methyl)(methyl)amino]benzonitrile]",6

# Same assay, conditions: Plasmodium falciparum, Erythrocyte, infected human red blood cells; read-out: EC50, P. falciparum Proliferation Assay
row,Molecule,EC50 [nM]
1,"CN(Cc1cn2c(-c3ccc(-c4nnc(N)s4)cc3)cnc2cn1)c1ccc(C#N)cc1 [Compound 25, 4-[({3-[4-(5-amino-1,3,4-thiadiazol-2-yl)phenyl]imidazo[1,2-a]pyrazin-6-yl}methyl)(methyl)amino]benzonitrile]",< 50
